Test [1] deals with GDP-bound NRAS wild-type protein (Homo sapiens, UniProt P01111). Briefly: Binding to NRAS by surface plasmon resonance (SPR), Single Cycle Kinetics. As to conditions: SPR, GDP-bound NRAS wild-type vs GDP-bound KRAS wild-type. (In general: Surface plasmon resonance follows binding to a sensor surface in real time, without labels.)
For test [2], the target named is GDP-bound HRAS wild-type protein (Homo sapiens, UniProt P01112). Briefly: Binding to HRAS by surface plasmon resonance (SPR), Single Cycle Kinetics. As to conditions: SPR, GDP-bound HRAS wild-type vs GDP-bound KRAS wild-type.
GDP-bound HRAS wild-type protein, sequence (P01112 whole entry): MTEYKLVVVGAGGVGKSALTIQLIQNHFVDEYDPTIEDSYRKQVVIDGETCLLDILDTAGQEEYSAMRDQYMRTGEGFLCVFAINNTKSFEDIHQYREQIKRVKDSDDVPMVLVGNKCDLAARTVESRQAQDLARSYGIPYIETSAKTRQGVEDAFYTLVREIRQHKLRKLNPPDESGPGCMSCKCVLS

GDP-bound NRAS wild-type protein, sequence (P01111 whole entry): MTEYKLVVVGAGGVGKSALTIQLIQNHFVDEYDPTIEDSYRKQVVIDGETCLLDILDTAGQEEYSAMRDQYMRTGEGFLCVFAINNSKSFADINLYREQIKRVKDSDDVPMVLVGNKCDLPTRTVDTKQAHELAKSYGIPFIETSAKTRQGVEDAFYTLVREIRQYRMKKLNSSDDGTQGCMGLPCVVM

In the case of `CCO[C@@H]1C[C@H]2C(=O)NC3(CC(C)(C)C3)C(=O)N(C)[C@@H](C3CCCC3)C(=O)N(C)[C@H](C(=O)N(C)C)CC(=O)N(C)[C@@H](CC(C)C)C(=O)N[C@@H]([C@@H](C)CC)C(=O)N(C3CC3)CC(=O)N(C)[C@H]3C/C=C\CCN(C3=O)[C@@H](Cc3ccc(C)cc3)C(=O)N(C)CC(=O)N[C@@H](CCc3cc(F)c(C(F)(F)F)c(F)c3)C(=O)N2C1` [PP2109], the “NRAS/KRAS (ratio of KD value with respect to NRAS to KD value with respect to KRAS)” value in test [1] was “A (a compound having 10 or more and less than 20 is denoted as A)”. In addition, in test [2], the “HRAS/KRAS (ratio of KD value with respect to HRAS to KD value with respect to KRAS)” value was “A (a compound having 10 or more and less than 20 is denoted as A)”.

Turning to `CCO[C@@H]1C[C@H]2C(=O)NC3(CCC3)C(=O)N(C)[C@@H](C3CCCC3)C(=O)N(C)[C@H](C(=O)N(C)CC)CC(=O)N(C)[C@H]3CCCCCc4ccc(cc4)C[C@@H](C(=O)N(C)CC(=O)N[C@@H](CCc4ccc(C(F)(F)F)c(OC)c4)C(=O)N2C1)N1CC/C=C\C[C@@H](C1=O)N(C)C(=O)CN(C)C(=O)[C@H]([C@@H](C)CC)NC3=O` [PP2118], the “NRAS/KRAS (ratio of KD value with respect to NRAS to KD value with respect to KRAS)” value in test [1] is “A (a compound having 10 or more and less than 20 is denoted as A)”. Also, the “HRAS/KRAS (ratio of KD value with respect to HRAS to KD value with respect to KRAS)” value in test [2] is “B (a compound having 3 or more and less than 10 is denoted as B)”.

As for `CCO[C@@H]1C[C@H]2C(=O)NC3(CC(C)(C)C3)C(=O)N(C)[C@@H](C(CC)CC)C(=O)N(C)[C@H](C(=O)N(C)C)CC(=O)N(C)[C@@H](CC3CC3)C(=O)N[C@@H]([C@@H](C)CC)C(=O)N(C)CC(=O)N(C)[C@H]3C/C=C\CCN(C3=O)[C@@H](Cc3ccc(C(F)(F)F)cc3)C(=O)N(C)CC(=O)N[C@@H](CCc3cc(F)c(C(F)(F)F)c(F)c3)C(=O)N2C1` [PP2119], the “NRAS/KRAS (ratio of KD value with respect to NRAS to KD value with respect to KRAS)” value in test [1] was “A (a compound having 10 or more and less than 20 is denoted as A)”. In addition, in test [2], the “HRAS/KRAS (ratio of KD value with respect to HRAS to KD value with respect to KRAS)” value is “B (a compound having 3 or more and less than 10 is denoted as B)”.

In the case of `CCO[C@@H]1C[C@H]2C(=O)NC3(CC(C)(C)C3)C(=O)N(C)[C@@H](C(CC)CC)C(=O)N(C)[C@H](C(=O)N(C)C)CC(=O)N(C)[C@@H](CC3CCC3)C(=O)N[C@@H]([C@@H](C)CC)C(=O)N(C)CC(=O)N(C)[C@H]3C/C=C\CCN(C3=O)[C@@H](Cc3ccc(C)cc3)C(=O)N(C)CC(=O)N[C@@H](CCc3ccc(Cl)c(Cl)c3)C(=O)N2C1` [PP2120], the “NRAS/KRAS (ratio of KD value with respect to NRAS to KD value with respect to KRAS)” value in test [1] is recorded as “AA (a compound having 20 or more is denoted as AA)”. Further, the “HRAS/KRAS (ratio of KD value with respect to HRAS to KD value with respect to KRAS)” value in test [2] is “A (a compound having 10 or more and less than 20 is denoted as A)”.

In the case of `CCO[C@@H]1C[C@H]2C(=O)NC3(CC(C)(C)C3)C(=O)N(C)[C@@H](C(CC)CC)C(=O)N(C)[C@H](C(=O)N(C)C)CC(=O)N(C)[C@@H](COC)C(=O)N[C@@H]([C@@H](C)CC)C(=O)N(C)CC(=O)N(C)[C@H]3C/C=C\CCN(C3=O)[C@@H](Cc3ccc(C(F)(F)F)cc3)C(=O)N(C)CC(=O)N[C@@H](CCc3cc(F)c(C(F)(F)F)c(F)c3)C(=O)N2C1` [PP2121], the “NRAS/KRAS (ratio of KD value with respect to NRAS to KD value with respect to KRAS)” value in test [1] is listed as “AA (a compound having 20 or more is denoted as AA)”. Besides, the “HRAS/KRAS (ratio of KD value with respect to HRAS to KD value with respect to KRAS)” value in test [2] was “A (a compound having 10 or more and less than 20 is denoted as A)”.

Consider `CCO[C@@H]1C[C@H]2C(=O)NC3(CC(C)(C)C3)C(=O)N(C)[C@@H](C(CC)CC)C(=O)N(C)[C@H](C(=O)N(C)C)CC(=O)N(C)[C@@H](C(C)C)C(=O)N[C@@H]([C@@H](C)CC)C(=O)N(C)CC(=O)N(C)[C@H]3C/C=C\CCN(C3=O)[C@@H](Cc3ccc(C)cc3)C(=O)N(C)CC(=O)N[C@@H](CCc3ccc(Cl)c(Cl)c3)C(=O)N2C1` [PP2122], for which, in test [1], the “NRAS/KRAS (ratio of KD value with respect to NRAS to KD value with respect to KRAS)” value was “AA (a compound having 20 or more is denoted as AA)”. The “HRAS/KRAS (ratio of KD value with respect to HRAS to KD value with respect to KRAS)” value in test [2] was “A (a compound having 10 or more and less than 20 is denoted as A)”.

`CCO[C@@H]1C[C@H]2C(=O)NC3(CC(C)(C)C3)C(=O)N(C)[C@@H](C(CC)CC)C(=O)N(C)[C@H](C(=O)N3CCCC3)CC(=O)N(C)[C@@H](COC)C(=O)N[C@@H]([C@@H](C)CC)C(=O)N(C)CC(=O)N(C)[C@H]3C/C=C\CCN(C3=O)[C@@H](Cc3ccc(C(F)(F)F)cc3)C(=O)N(C)CC(=O)N[C@@H](CCc3cc(F)c(C(F)(F)F)c(F)c3)C(=O)N2C1` [PP2123]: the “NRAS/KRAS (ratio of KD value with respect to NRAS to KD value with respect to KRAS)” value in test [1] was “A (a compound having 10 or more and less than 20 is denoted as A)”. The “HRAS/KRAS (ratio of KD value with respect to HRAS to KD value with respect to KRAS)” value in test [2] was “A (a compound having 10 or more and less than 20 is denoted as A)”.

In the case of `CCO[C@@H]1C[C@H]2C(=O)NC3(CC(C)(C)C3)C(=O)N(C)[C@@H](C(CC)CC)C(=O)N(C)[C@H](C(=O)N(C)C)CC(=O)N(C)[C@@H](CC3CC3)C(=O)N[C@@H]([C@@H](C)CC)C(=O)N(C)CC(=O)N(C)[C@H]3C/C=C\CCN(C3=O)[C@@H](Cc3ccc(C(F)(F)F)cc3)C(=O)N(C)CC(=O)N[C@@H](CCc3ccc(C(F)(F)F)c(Cl)c3)C(=O)N2C1` [PP2124], in test [1], the “NRAS/KRAS (ratio of KD value with respect to NRAS to KD value with respect to KRAS)” value is on record as “AA (a compound having 20 or more is denoted as AA)”. In addition, in test [2], the “HRAS/KRAS (ratio of KD value with respect to HRAS to KD value with respect to KRAS)” value was “A (a compound having 10 or more and less than 20 is denoted as A)”.

Regarding `CCC[C@H]1C(=O)N[C@@H]([C@@H](C)CC)C(=O)N(C)CC(=O)N(C)[C@H]2C/C=C\CCN(C2=O)[C@@H](Cc2ccc(C(F)(F)F)cc2)C(=O)N(C)CC(=O)N[C@@H](CCc2cc(F)c(C(F)(F)F)c(F)c2)C(=O)N2C[C@H](OCC)C[C@H]2C(=O)NC2(CC(C)(C)C2)C(=O)N(C)[C@@H](C(CC)CC)C(=O)N(C)[C@H](C(=O)N(C)C)CC(=O)N1C` [PP2125], the “NRAS/KRAS (ratio of KD value with respect to NRAS to KD value with respect to KRAS)” value in test [1] was “AA (a compound having 20 or more is denoted as AA)”. The “HRAS/KRAS (ratio of KD value with respect to HRAS to KD value with respect to KRAS)” value in test [2] was “A (a compound having 10 or more and less than 20 is denoted as A)”.

As to `CCO[C@@H]1C[C@H]2C(=O)NC3(CC(C)(C)C3)C(=O)N(C)[C@@H](C(CC)CC)C(=O)N(C)[C@H](C(=O)N(C)C)CC(=O)N(C)[C@@H](COC)C(=O)N[C@@H]([C@@H](C)CC)C(=O)N(C)CC(=O)N(C)[C@H]3C/C=C\CCN(C3=O)[C@@H](Cc3ccc(C(F)(F)F)cc3)C(=O)N(C)CC(=O)N[C@@H](CCc3ccc(C(F)(F)F)c(Cl)c3)C(=O)N2C1` [PP2126], the “NRAS/KRAS (ratio of KD value with respect to NRAS to KD value with respect to KRAS)” value in test [1] is “A (a compound having 10 or more and less than 20 is denoted as A)”. Moreover, the “HRAS/KRAS (ratio of KD value with respect to HRAS to KD value with respect to KRAS)” value in test [2] is “B (a compound having 3 or more and less than 10 is denoted as B)”.

With `CCO[C@@H]1C[C@H]2C(=O)NC3(CC(C)(C)C3)C(=O)N(C)[C@@H](C(CC)CC)C(=O)N(C)[C@H](C(=O)N(C)C)CC(=O)N(C)[C@@H](CC(C)C)C(=O)N[C@@H]([C@@H](C)CC)C(=O)N(C)CC(=O)N(C)[C@H]3C/C=C\CCN(C3=O)[C@@H](Cc3ccc(C(F)(F)F)cc3)C(=O)N(C)CC(=O)N[C@@H](CCc3cc(F)c(C(F)(F)F)c(F)c3)C(=O)N2C1` [PP2127], the “NRAS/KRAS (ratio of KD value with respect to NRAS to KD value with respect to KRAS)” value in test [1] was “AA (a compound having 20 or more is denoted as AA)”. Also, in test [2], the “HRAS/KRAS (ratio of KD value with respect to HRAS to KD value with respect to KRAS)” value is “A (a compound having 10 or more and less than 20 is denoted as A)”.

In the case of `CCO[C@@H]1C[C@H]2C(=O)NC3(CC(C)(C)C3)C(=O)N(C)[C@@H](C(CC)CC)C(=O)N(C)[C@H](C(=O)N3CCCC3)CC(=O)N(C)[C@@H](COC)C(=O)N[C@@H]([C@@H](C)CC)C(=O)N(C)CC(=O)N(C)[C@H]3C/C=C\CCN(C3=O)[C@@H](Cc3ccc(C(F)(F)F)cc3)C(=O)N(C)CC(=O)N[C@@H](CCc3ccc(C(F)(F)F)c(Cl)c3)C(=O)N2C1` [PP2128], the “NRAS/KRAS (ratio of KD value with respect to NRAS to KD value with respect to KRAS)” value in test [1] is “AA (a compound having 20 or more is denoted as AA)”. Further, the “HRAS/KRAS (ratio of KD value with respect to HRAS to KD value with respect to KRAS)” value in test [2] was “A (a compound having 10 or more and less than 20 is denoted as A)”.

For the molecule `CCO[C@@H]1C[C@H]2C(=O)NC3(CC(C)(C)C3)C(=O)N(C)[C@@H](C(CC)CC)C(=O)N(C)[C@H](C(=O)N(C)C)CC(=O)N(C)[C@@H](CC(C)C)C(=O)N[C@@H]([C@@H](C)CC)C(=O)N(C)CC(=O)N(C)[C@H]3C/C=C\CCN(C3=O)[C@@H](Cc3ccc(C(F)(F)F)cc3)C(=O)N(C)CC(=O)N[C@@H](CCc3ccc(C(F)(F)F)c(Cl)c3)C(=O)N2C1` [PP2132], in test [1], the “NRAS/KRAS (ratio of KD value with respect to NRAS to KD value with respect to KRAS)” value is “AA (a compound having 20 or more is denoted as AA)”. Moreover, the “HRAS/KRAS (ratio of KD value with respect to HRAS to KD value with respect to KRAS)” value in test [2] was “A (a compound having 10 or more and less than 20 is denoted as A)”.

Regarding `CCO[C@@H]1C[C@H]2C(=O)NC3(CC(C)(C)C3)C(=O)N(C)[C@@H](C(CC)CC)C(=O)N(C)[C@H](C(=O)N(C)C)CC(=O)N(C)[C@@H](CC3CCC3)C(=O)N[C@@H]([C@@H](C)CC)C(=O)N(C)CC(=O)N(C)[C@H]3C/C=C\CCN(C3=O)[C@@H](Cc3ccc(C(F)(F)F)cc3)C(=O)N(C)CC(=O)N[C@@H](CCc3cc(F)c(C(F)(F)F)c(F)c3)C(=O)N2C1` [PP2133], in test [1], the “NRAS/KRAS (ratio of KD value with respect to NRAS to KD value with respect to KRAS)” value was “AA (a compound having 20 or more is denoted as AA)”. In test [2], the “HRAS/KRAS (ratio of KD value with respect to HRAS to KD value with respect to KRAS)” value is “A (a compound having 10 or more and less than 20 is denoted as A)”.

For the molecule `CCO[C@@H]1C[C@H]2C(=O)NC3(CC(C)(C)C3)C(=O)N(C)[C@@H](C(CC)CC)C(=O)N(C)[C@H](C(=O)N(C)C)CC(=O)N(C)[C@@H](C(C)C)C(=O)N[C@@H]([C@@H](C)CC)C(=O)N(C)CC(=O)N(C)[C@H]3C/C=C\CCN(C3=O)[C@@H](Cc3ccc(C(F)(F)F)cc3)C(=O)N(C)CC(=O)N[C@@H](CCc3cc(F)c(C(F)(F)F)c(F)c3)C(=O)N2C1` [PP2135], the “NRAS/KRAS (ratio of KD value with respect to NRAS to KD value with respect to KRAS)” value in test [1] is “AA (a compound having 20 or more is denoted as AA)”. Besides, the “HRAS/KRAS (ratio of KD value with respect to HRAS to KD value with respect to KRAS)” value in test [2] was “A (a compound having 10 or more and less than 20 is denoted as A)”.
